IC50 data for 37 compounds are collected here from patent US8450308B2 (Vitae Pharmaceuticals, Inc., priority 2008, dated 2013).

The target of the experiment is T1, truncated human beta-secretase (residues 1-458, His6-tagged at the C-terminus) (Homo sapiens, UniProt P56817).
T1 construct: truncated human beta-secretase (residues 1-458, His6-tagged at the C-terminus); His6 (C); made in house; host or cells: insect cells D. melanogaster S2 (baculovirus expression system (so in the source))
The experiment can be described thus: BACE fluorescence quench assay. In kind it is biochemical. The method, then:
The assay was performed at room temperature in 96-well white opaque Optiplates aque Optiplates (PerkinElmer, Waltham, Mass.) in a total volume of 200 μl of the incubation mixture containing 50 mM sodium acetate buffer, pH 4.5, 0.4 μM FRET substrate, 2.4 nM enzyme, 5% DMSO, and 0.05% Brij-35. The tested compounds were serially diluted in DMSO and pre-incubated with the substrate. The reaction was started by addition of enzyme, and the progress of the reaction was followed by measuring fluorescence with an excitation wavelength of 480 nm and an emission wavelength of 520 nm. Ten measurements were taken every 5-10 min, and the intensity of fluorescence was regressed against time in order to derive velocities of reaction in all 96 wells. […] IC50 values were calculated by fitting percent inhibition vs. inhibitor concentration into a four-parametric logistic model using XLFit software (IDBS, Guildford, UK).

Where [1] appears, read: in vitro enzyme activity, BACE fluorescence assay, pH 4.5, read-out: IC50.

SMILES strings stand for the structures. Like-named read-outs stand apart in the source and are kept apart here.

T1 sequence (P56817 22-458): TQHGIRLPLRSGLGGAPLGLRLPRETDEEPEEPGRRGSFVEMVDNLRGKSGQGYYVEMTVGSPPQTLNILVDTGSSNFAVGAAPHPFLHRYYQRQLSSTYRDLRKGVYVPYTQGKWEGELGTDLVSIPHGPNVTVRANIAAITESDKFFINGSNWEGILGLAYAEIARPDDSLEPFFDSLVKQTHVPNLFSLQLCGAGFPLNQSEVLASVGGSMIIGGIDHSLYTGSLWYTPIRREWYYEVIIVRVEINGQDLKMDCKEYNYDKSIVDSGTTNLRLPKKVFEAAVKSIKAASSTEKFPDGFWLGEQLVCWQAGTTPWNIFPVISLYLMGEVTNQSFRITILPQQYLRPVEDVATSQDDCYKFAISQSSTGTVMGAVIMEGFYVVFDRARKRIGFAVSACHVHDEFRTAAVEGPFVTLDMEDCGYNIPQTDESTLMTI

The term IC50 denotes the concentration that inhibits the measured activity by half. In the case of `CN1C(=O)C2(CC(C3CCCOC3)Oc3ccc(-c4cccc(C#N)c4)cc32)N=C1N` (stereo not shown) [Compound 1, 3-(2′-amino-1′-methyl-5′-oxo-2-(tetrahydro-2H-pyran-3-yl)-1′,5′-dihydrospiro[chroman-4,4′-imidazole]-6-yl)benzonitrile], the IC50 under setting [1] fell in the range of 0.001 to 0.1 µM. Consider `CN1OC2(CC3(CCCOC3)Oc3ccc(-c4cccc(C#N)c4)cc32)N=C1N` (stereo not shown) [Compound 117], for which the IC50 under setting [1] lay in the range of 1 to 5 µM. Still for that read-out and setting: for `CC1CC(C2CC3(N=C(N)N(C)O3)c3cc(-c4cccc(C#N)c4)ccc3O2)CC(C)O1` (stereo not shown) [Compound 319] the value was 0.1 to 0.5 µM. With `CC(=O)c1cccc(-c2ccc3c(c2)[C@]2(C[C@]4(CCCOC4)O3)N=C(N)N(C)C2=O)c1` [Compound 358], the IC50 under setting [1] was in the range of 0.5 to 1 µM.

Take `CN1O[C@]2(C[C@H](CC3CCCO3)Oc3ccc(-c4cccc(C#N)c4)cc32)N=C1N` (stereo in doubt) [Compound 366, 3-(3′-amino-2′-methyl-2-((tetrahydrofuran-2-yl)methyl)-2′H-spiro[chroman-4,5′-[1,2,4]oxadiazole]-6-yl)benzonitrile]: the IC50 under setting [1] is 0.5 to 1 µM.

In turn, `COCc1ccc(-c2ccc3c(c2)C2(CC(c4ccccc4)O3)N=C(N)N(C)C2=O)cc1` (stereo not shown) [Compound 54, 2′-amino-6-(4-(methoxymethyl)phenyl)-1′-methyl-2-phenylspiro[chroman-4,4′-imidazol]-5′(1′H)-one] showed an IC50 of 10 to 50 µM. In the case of `CN1OC2(CC(C3CCCOC3)Oc3ccc(-c4cccc(Cl)c4)cc32)N=C1N` (stereo not shown) [Compound 87], the IC50 under setting [1] lay within 0.1 to 0.5 µM. Take `CC(C)=CC(CCO)C1CC2(N=C(N)N(C)O2)c2cc(-c3cccc(C#N)c3)ccc2O1` (stereo not shown) [Compound 382]: the IC50 under setting [1] lay within 1 to 5 µM.

`CN1C(=O)[C@@]2(C[C@@]3(CCCOC3)Oc3ccc(-c4cccc(C#N)c4)cc32)N=C1N` [Compound 72b]: the 50% inhibitory concentration (IC50) under setting [1] lay in the range of 0.1 to 0.5 µM. With `COCCOc1cccc(-c2ccc3c(c2)C2(CC4(CCCOC4)O3)N=C(N)N(C)O2)c1` (stereo not shown) [Compound 129], the IC50 under setting [1] fell in the range of 10 to 50 µM. As to `CCOC(=O)c1cccc(-c2ccc3c(c2)[C@]2(C[C@]4(CCCOC4)O3)N=C(N)N(C)C2=O)c1` [Compound 386], the IC50 under setting [1] fell in the range of 1 to 5 µM. Regarding `Cc1cccc(-c2ccc3c(c2)C2(CC(C4CCOC(C)(C)C4)O3)N=C(N)N(C)O2)c1F` (stereo not shown) [Compound 363], the IC50 under setting [1] is 0.5 to 1 µM.

In the case of `CN1C(=O)[C@@]2(C[C@@H](c3ccccc3)Oc3ccc(-c4cccc(C#N)c4)cc32)N=C1N` [Compound 2b], the IC50 under setting [1] lay within 0.001 to 0.1 µM. In turn, `CNS(=O)(=O)c1cccc(-c2ccc3c(c2)C2(CC(c4ccccc4)O3)N=C(N)N(C)C2=O)c1` (stereo not shown) [Compound 48, 3-(2′-amino-1′-methyl-5′-oxo-2-phenyl-1′,5′-dihydrospiro[chroman-4,4′-imidazole]-6-yl)-N-methylbenzenesulfonamide] displayed an IC50 of 5 to 10 µM. `CN1C(=O)C2(CC3(CCCOC3)Oc3ccc(-c4cccc(-n5ccnc5)n4)cc32)N=C1N` (stereo not shown) [Compound 439]: under setting [1], the IC50 was in the range of 5 to 10 µM. As to `CN1C(=O)C2(CC(C3CCOC(C)(C)C3)Oc3ccc(-c4cccc(F)c4)cc32)N=C1N` (stereo not shown) [Compound 452], the IC50 under setting [1] fell in the range of 10 to 50 µM. With `CN1C(=O)[C@@]2(C[C@@]3(CCCOC3)Oc3ccc(-c4cccc(Cl)c4)cc32)N=C1N` [Compound 289], under setting [1], the IC50 is 0.1 to 0.5 µM.

Consider `CN1C(=O)[C@@]2(C[C@H](c3ccccc3)Oc3ccc(-c4cccc(C#N)c4)cc32)N=C1N` (racemic) [Compound 2a, 3-(2′-amino-1′-methyl-5′-oxo-2-phenyl-1′,5′-dihydrospiro[chroman-4,4′-imidazole]-6-yl)benzonitrile], for which the IC50 under setting [1] lay within 0.001 to 0.1 µM.

As to `CN1C(=O)[C@@]2(C[C@@]3(CCCOC3)Oc3ccc(-c4cccc(Cl)n4)cc32)N=C1N` [Compound 447], the IC50 under setting [1] lay within 5 to 10 µM. Regarding `CN1C(=O)C2(CC(c3ccccc3)Oc3ccc(-c4cccs4)cc32)N=C1N` (stereo not shown) [Compound 36, 2′-amino-1′-methyl-2-phenyl-6-(thiophen-2-yl)spiro[chroman-4,4′-imidazol]-5′(1′H)-one], the IC50 is 1 to 5 µM. On to `CN1C(=O)[C@@]2(C[C@@]3(CCCOC3)Oc3ccc(-c4cccc(Br)c4)cc32)N=C1N` [Compound 336], for which the IC50 under setting [1] is 0.1 to 0.5 µM. Take `CC(C)=CC(CCO)[C@@H]1C[C@@]2(N=C(N)N(C)O2)c2cc(-c3cc(F)cc(F)c3)ccc2O1` (stereo partly shown) [Compound 444]: the IC50 under setting [1] lay in the range of 5 to 10 µM. In turn, `CN1C(=O)C2(CC(c3ccccc3)Oc3ccc(-c4cccn4C(=O)OC(C)(C)C)cc32)N=C1N` (stereo not shown) [Compound 70, tert-butyl 2-(2′-amino-1′-methyl-5′-oxo-2-phenyl-1′,5′-dihydrospiro[chroman-4,4′-imidazole]-6-yl)-1H-pyrrole-1-carboxylate] returned an IC50 of 10 to 50 µM. Turning to `COc1ccc(OC)c(-c2ccc3c(c2)[C@]2(C[C@@]4(CCCOC4)O3)N=C(N)N(C)C2=O)c1` [Compound 321], under setting [1], the IC50 lay in the range of 0.1 to 0.5 µM. As for `CN1OC2(CC3(CCCCOC3)Oc3ccc(-c4cccc(C#N)c4)cc32)N=C1N` (stereo not shown) [Compound 114], the concentration for half-maximal inhibition (IC50) under setting [1] lay within 0.5 to 1 µM.

As to `CC(=O)c1cccc(-c2ccc3c(c2)[C@]2(C[C@@]4(CCCOC4)O3)N=C(N)N(C)C2=O)c1` [Compound 427], under setting [1], the IC50 lay within 1 to 5 µM. Same read-out and setting: for `CN1OC2(CC3(Cc4ccccc4C3)Oc3ccc(-c4cccc(C#N)c4)cc32)N=C1N` (stereo not shown) [Compound 315] the value was 0.1 to 0.5 µM; for `CN1C(=O)[C@@]2(CC(c3cccs3)Oc3ccc(-c4cccc(C#N)c4)cc32)N=C1N` (stereo in doubt) [Compound 8b, 3-((2R,4S)-2′-Amino-1′-methyl-5′-oxo-2-(thiophen-2-yl)-1′,5′-dihydrospiro[chroman-4,4′-imidazole]-6-yl)-benzonitrile], 1 to 5 µM; for `CN1O[C@@]2(C[C@]3(CCOC3)Oc3ccc(-c4cccc(C#N)c4)cc32)N=C1N` [Compound 113b], 0.5 to 1 µM. Still for that read-out and setting: then `CN1OC2(CC3(COC(C)(C)OC3)Oc3ccc(-c4cccc(C#N)c4)cc32)N=C1N` (stereo not shown) [Compound 123, 3-(3″-imino-2″-methylspiro[spiro(chroman-2,1′-(4,4-dimethyl-3,5-dioxane))-4,5″-[1,2,4]oxadiazolidine]-6-yl)benzonitrile], with 5 to 10 µM; and `CN1C(=O)C2(CC(c3cccc(Cl)c3)Oc3ccc(-c4cccc(C#N)c4)cc32)N=C1N` (stereo not shown) [Compound 20, 3-(2′-amino-2-(3-chlorophenyl)-1′-methyl-5′-oxo-1′,5′-dihydrospiro[chroman-4,4′-imidazole]-6-yl)benzonitrile], with 0.5 to 1 µM; and `CCOc1ccc(Cl)cc1-c1ccc2c(c1)[C@]1(C[C@@]3(CCCOC3)O2)N=C(N)N(C)C1=O` [Compound 378], with 1 to 5 µM. With `CN1C(=O)[C@@]2(C[C@]3(CCCOC3)Oc3ccc(-c4ccco4)cc32)N=C1N` [Compound 411], the IC50 under setting [1] lay within 1 to 5 µM.

Regarding `CN1OC2(C[C@H]([C@H]3CCOC(C)(C)C3)Oc3ccc(-c4cc(F)ccc4F)cc32)N=C1N` (stereo partly shown) [Compound 341], the half-inhibitory concentration (IC50) under setting [1] lay within 0.1 to 0.5 µM. In turn, `CN1C(=O)[C@@]2(C[C@@H](c3ccccc3)Oc3ccc(Br)cc32)N=C1N` (relative stereo) [Compound 44b, Cis-2′-amino-6-bromo-1′-methyl-2-phenylspiro[chroman-4,4′-imidazol]-5′(1′H)-one] displayed an IC50 of 5 to 10 µM. For `CN1C(=O)[C@@]2(C[C@@]3(CCCOC3)Oc3ccc(-c4cccc(C(F)(F)F)c4)cc32)N=C1N` [Compound 325], the half-inhibitory concentration (IC50) under setting [1] was 0.1 to 0.5 µM. Consider `CN1C(=O)C2(CC(C3CCOC(C)(C)C3)Oc3ccc(-c4cc(F)cc(Cl)c4)cc32)N=C1N` (stereo not shown) [Compound 417], for which, under setting [1], the IC50 lay within 1 to 5 µM.
